Measured values reported in article PMC12966202 (Molecular Imaging and Biology, 2025).
“And” between values parts separate entries of the source, which are not always exact repeats. Equal entries are not always repeated.

Method: Subjects with localized known or suspected infection were recruited and provided informed consent according to guidelines of the University of Pennsylvania Institutional Review Board. […] The full study protocols are available at clinicaltrials.gov, NCT03424525 and were performed under the authority of the University of Pennsylvania Radioactive Drug Research Committee.
PET scans were acquired from head to mid-thigh over 15 min in 10 overlapping bed positions at 90 s per bed position with ~ 50% bed overlap. The first PET scan was started immediately following injection, followed by a second scan at 20 ± 3 min post-injection, and a third scan at 63 ± 4 min post-injection. Suspected infections outside of the dosimetry scan field of view were optionally imaged following the acquisition of the final dosimetry scan. Subjects had the option to void bladders between the second and third PET/CT scans and following the last scan, without urine collection. Images were reconstructed using a list-mode time-of-flight ordered subsets expectation maximization algorithm (TOF-OSEM). […] These images were reconstructed using TOF-OSEM, but were not included in the quantitative dosimetry results (Fig. 2).
Total activity in the brain, gallbladder, heart, intestines, kidneys, liver, lungs, pancreas, spleen, thyroids, and urinary bladder was assessed via PET with MIM v6.7 (MIM Software Inc.), using co-registered CT images to delineate regions of interest. To enable estimation of total activity in red bone marrow, tracer uptake and volume were measured based on activity concentrations in the 2nd to 4th lumbar vertebrae of each subject. Using a red marrow density of 1.03 g/mL and assuming that red marrow weight is 1.6% of total body weight, total red marrow activity was calculated for each subject. Time activity curves for organs were generated and in most cases fit to mono- or bi-exponential functions using OLINDA | EXM v1.1 software RRID:SCR_026835 [23]. For time activity curves that were poorly fit by exponential functions, a Riemann Sum was used to calculate numbers of disintegrations occurring in the organs. Dosimetry estimates were calculated using the Standard Adult Male phantom option in OLINDA.

[1] = average injected activity of 346 MBq (9.4 mCi)

COc1cc(Cc2cnc(N)nc2N)cc(OC)c1O[11CH3] [[^11C]TMP, [^11C]trimethoprim]
Effective dose (Mean ± SD, n = 4 males): 4.53E-03 mSv/MBq and 4.53E-03 ± 2.22E-04 mSv/MBq | Effective dose equivalent (Mean ± SD, n = 4 males): 6.08E-03 ± 3.49E-04 mSv/MBq | Mean absorbed dose estimate, Adrenals (Mean ± SD, n = 4 males): 3.47E-03 ± 1.13E-04 mSv/MBq | Mean absorbed dose estimate, Bone (red marrow) (Mean ± SD, n = 4 males): 3.75E-03 ± 4.17E-04 mSv/MBq | Mean absorbed dose estimate, Brain (Mean ± SD, n = 4 males): 1.37E-03 ± 3.00E-04 mSv/MBq | Mean absorbed dose estimate, Breasts (Mean ± SD, n = 4 males): 1.95E-03 ± 8.35E-05 mSv/MBq | Mean absorbed dose estimate, Heart wall (Mean ± SD, n = 4 males): 4.66E-03 ± 3.36E-04 mSv/MBq | Mean absorbed dose estimate, Kidneys (Mean ± SD, n = 4 males): 1.35E-02 mSv/MBq and 1.35E-02 ± 2.44E-03 mSv/MBq | Mean absorbed dose estimate, Liver (Mean ± SD, n = 4 males): 1.43E-02 mSv/MBq and 1.43E-02 ± 1.58E-03 mSv/MBq | Mean absorbed dose estimate, Lower large intestine wall (Mean ± SD, n = 4 males): 2.83E-03 ± 8.88E-05 mSv/MBq | Mean absorbed dose estimate, Lungs (Mean ± SD, n = 4 males): 5.62E-03 ± 1.05E-03 mSv/MBq | Mean absorbed dose estimate, Muscle (Mean ± SD, n = 4 males): 2.25E-03 ± 6.29E-05 mSv/MBq | Mean absorbed dose estimate, Osteogenic cells (Mean ± SD, n = 4 males): 3.98E-03 ± 2.42E-04 mSv/MBq | Mean absorbed dose estimate, Ovaries (Mean ± SD, n = 4 males): 3.07E-03 ± 1.25E-04 mSv/MBq | Mean absorbed dose estimate, Pancreas (Mean ± SD, n = 4 males): 5.27E-03 ± 2.20E-03 mSv/MBq | Mean absorbed dose estimate, Skin (Mean ± SD, n = 4 males): 1.73E-03 ± 6.60E-05 mSv/MBq | Mean absorbed dose estimate, Small intestine (Mean ± SD, n = 4 males): 9.29E-03 ± 2.33E-03 mSv/MBq | Mean absorbed dose estimate, Spleen (Mean ± SD, n = 4 males): 1.18E-02 mSv/MBq and 1.18E-02 ± 4.64E-03 mSv/MBq | Mean absorbed dose estimate, Stomach wall (Mean ± SD, n = 4 males): 2.83E-03 ± 6.34E-05 mSv/MBq | Mean absorbed dose estimate, Testes (Mean ± SD, n = 4 males): 2.03E-03 ± 1.05E-04 mSv/MBq | Mean absorbed dose estimate, Thymus (Mean ± SD, n = 4 males): 2.31E-03 ± 9.59E-05 mSv/MBq | Mean absorbed dose estimate, Thyroid (Mean ± SD, n = 4 males): 5.96E-03 ± 1.73E-03 mSv/MBq | Mean absorbed dose estimate, Total Body (Mean ± SD, n = 4 males): 2.84E-03 ± 6.24E-05 mSv/MBq | Mean absorbed dose estimate, Upper large intestine wall (Mean ± SD, n = 4 males): 4.86E-03 ± 7.38E-04 mSv/MBq | Mean absorbed dose estimate, Urinary bladder wall (Mean ± SD, n = 4 males): 1.10E-02 mSv/MBq and 1.10E-02 ± 5.55E-03 mSv/MBq | Mean absorbed dose estimate, Uterus (Mean ± SD, n = 4 males): 3.21E-03 ± 2.24E-04 mSv/MBq | Mean absorbed dose estimate, Gallbladder wall (Mean ± SD, one subject with cholecystectomy removed): 5.00E-03 ± 4.43E-04 mSv/MBq | background uptake in the brain (PET imaging, 4 adult males): low background uptake in the brain | estimated absorbed dose in the spleen [1]: 4.1 mSv | estimated effective dose [1]: 1.6 mSv | estimated absorbed dose in the liver (average injected activity of 346 MBq (9.4 mCi), highest uptake organ): 4.9 mSv
